Legend:
[1] = system: huCART19 cells co-cultured with NALM6 (Nalm-6); assay: CART proliferation in 4 day co-culture assay with RAD001; format: cell-based, human; conditions: for proliferation of huCART19 cells: 4 day co-culture
Protocol: To evaluate the functionality of CARTs, the T cells are thawed and counted, and viability is assessed by Cellometer. The number of CAR-positive cells in each culture is normalized using non-transduced T cells (UTD). The impact of RAD001 on CARTs was tested in titrations with RAD001, starting at 50 nM. The target cell line used in all co-culture experiments is NALM6 (Nalm-6), a human pre-B cell acute lymphoblastic leukemia (ALL) cell line expressing CD19 and transduced to express luciferase.
For measuring the proliferation of CARTs, T cells are cultured with target cells at a ratio of 1:1. The assay is run for 4 days, when cells are stained for CD3, CD4, CD8 and CAR expression. The number of T cells is assessed by flow cytometry using counting beads as reference.

[2] = pharmacokinetic analysis of RAD001 in blood; format: in vivo, NSG mice
Protocol: (§1) RAD001 dosing: A concentrated micro-emulsion of 50 mg equal to 1 mg RAD001 was formulated and then resuspended in D5W (dextrose 5% in water) at the time of dosing. Mice were orally dosed daily (via oral gavage) with 200 μl of the desired doses of RAD001.
PK analysis: Mice were dosed daily with RAD001 starting 7 days post tumor implantation. Dosing groups were as follows: 0.3 mg/kg, 1 mg/kg, 3 mg/kg, and 10 mg/kg. Mice were bled on days 0 and 14 following the first and last dose of RAD001, at the following time points for PK analysis: 15 minutes, 30 minutes, 1 hour, 2 hours, 4 hours, 8 hours, 12 hours, and 24 hours.

[3] = system: huCAR19 CAR T cells; assay: in vivo proliferation of humanized CD19 CART cells with RAD001 dosing; design: species or system NSG mice
Protocol: (§2) Tumor implantation: NALM6-luc cells were grown and expanded in vitro in RPMI supplemented with 10% heat inactivated fetal bovine serum. The cells were then transferred to a 15 ml conical tube and washed twice with cold sterile PBS. NALM6-luc cells were then counted and resuspended at a concentration of 10×10^6 cells per milliliter of PBS. The cells were placed on ice and immediately (within one hour) implanted in the mice. NALM6-luc cells were injected intravenously via the tail vein in a 100 μl volume, for a total of 1×10^6 cells per mouse.
CAR T cell dosing: Mice were administered 5×10^6 CAR T cells 7 days after tumor implantation. Cells were partially thawed in a 37 degree Celsius water bath and then completely thawed by the addition of 1 ml of cold sterile PBS to the tube containing the cells. The thawed cells were transferred to a 15 ml falcon tube and adjusted to a final volume of 10 mls with PBS. The cells were washed twice at 1000 rpm for 10 minutes each time and then counted on a hemocytometer. T cells were then resuspended at a concentration of 50×10^6 CAR T cells per ml of cold PBS and kept on ice until the mice were dosed. The mice were injected intravenously via the tail vein with 100 μl of the CAR T cells for a dose of 5×10^6 CAR T cells per mouse. Eight mice per group were treated either with 100 μl of PBS alone (PBS), or humanized CD19 CAR T cells.
as §1
Based on these doses, huCAR19 CAR T cells were dosed with and without RAD001 to determine the proliferative ability of these cells. The highest dose used was 3 mg/kg based on the levels of RAD001 in the blood 24 hours after dosing. As the concentration of RAD001 was above 10 nM 24 hours after the final dose of RAD001, several lower doses of RAD001 were used in the in vivo study with CAR T cells. The CAR T cells were dosed IV one day prior to the start of the daily oral RAD001 dosing. Mice were monitored via FACS for T cell expansion.

[4] = system: NALM6-luc tumors; assay: NALM6-luc tumor growth with daily RAD001 dosing; format: in vivo, NSG mice; conditions: daily oral dosing of RAD001 alone, 0.3, 1, 3 and 10 mg/kg
Protocol: NALM6-luc cells: The NALM6 human acute lymphoblastic leukemia (ALL) cell line was developed from the peripheral blood of a patient with relapsed ALL. The cells were then tagged with firefly luciferase. These suspension cells grow in RPMI supplemented with 10% heat inactivated fetal bovine serum.
Mice: 6 week old NSG (NOD.Cg-PrkdcscidIl2rgtmlWj1/SzJ) mice were received from the Jackson Laboratory (stock number 005557).
as §2, §1

## CO[C@H]1C[C@@H]2CC[C@@H](C)[C@@](O)(O2)C(=O)C(=O)N2CCCC[C@H]2C(=O)O[C@H]([C@H](C)C[C@@H]2CC[C@@H](OCCO)[C@H](OC)C2)CC(=O)[C@H](C)/C=C(\C)[C@@H](O)[C@@H](OC)C(=O)[C@H](C)C[C@H](C)/C=C/C=C/C=C/1C [RAD001, (1R,9S,12S,15R,16E,18R,19R,21R,23S,24E,26E,28E,30S,32S,35R)-1,18-dihydroxy-12-{(1R)-2-[(1S ,3R,4R)-4-(2-hydroxyethoxy)-3-methoxycyclohexyl]-1-methylethyl}-19,30-dimethoxy-15,17,21,23,29,35-hexamethyl-11,36-dioxa-4-aza-tricyclo[30.3.1.04,9]hexatriaconta-16,24,26,28-tetraene-2,3,10,14,20-pentaone]
[1]; 0.0032 nM RAD001
  proliferation of huCART19 cells: higher than observed without the addition of RAD001
[1]; 0.016 nM RAD001
  proliferation of huCART19 cells: higher than observed without the addition of RAD001
[1]; low doses of RAD001, 4 days of co-culture
  proliferation of CAR-expressing, transduced T cells: enhanced
[2]; NSG, mouse, blood, lowest dose tested (0.3 mg/kg), oral, read-out: RAD001 concentration in the blood 24 hours after dosing
  concentration at 24 h: > 10 nM
[2]; after the final dose of RAD001
  concentration of RAD001 24 hours after the final dose: above 10 nM
[2]; daily oral dosing
  stability in the blood of tumor bearing mice: fairly stable
[2]; day 14, lowest dose tested (0.3 mg/kg), oral
  RAD001 concentration in the blood 24 hours after dosing: above 10 nm
[3]; RAD001 0.003 mg/kg daily, above the normal level of huCAR19 proliferation
  CAR T cell proliferation in vivo: enhancement
[3]; lowest doses of RAD001
  proliferation of CD8+ CAR T cells in vivo: enhanced proliferation can be seen at early time points
[3]; lowest doses of RAD001, daily oral, huCAR19 dosed IV
  proliferation of the CAR T cells in vivo: enhanced proliferation
[3]; lowest doses of RAD001, compared with CD8+ CAR T cells
  proliferation of CD4+ CAR T cells in vivo: more evident and prolonged
[4]
  growth of NALM6-luc tumors: did not have an impact

— patent US20170209492A1, “SUBSET-OPTIMIZED CHIMERIC ANTIGEN RECEPTOR-CONTAINING T-CELLS” (NOVARTIS AG, priority 2014, published 2017)
